Several values for one entry are separate records, joined by “and”; a condition that tells them apart may be missing. Identical values can stand only once. Toxic doses and inconclusive results are not listed. Rule for the calls: active = survival T/C of 150% or more; inactive = T/C below 125% in these data.
Test system: P388 leukemia ip, CD2F1 mice, survival T/C
Assay: NCI In Vivo Anticancer Drug Screen. Data for tumor model P388 Leukemia (intraperitoneal) in CD2F1 (CDF1) mice
Conditions: endpoint: median survival time, higher = longer survival
Procedure, shortened: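 Mice carrying the transplanted tumor received test compound or vehicle. Survival was recorded in each group, and the value is the treated-group measurement divided by that of the vehicle-treated control group.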

[1] = dose: 100.0 mg/kg/injection, schedule: Q04DX002 (ip), vehicle: Klucel (hydroxypropylcellulose) (HPC)
[2] = dose: 200.0 mg/kg/injection, schedule: Q04DX002 (ip), vehicle: Klucel (hydroxypropylcellulose) (HPC)
[3] = dose: 400.0 mg/kg/injection, schedule: Q04DX002 (ip), vehicle: Klucel (hydroxypropylcellulose) (HPC)
[4] = dose: 50.0 mg/kg/injection, schedule: Q01DX009 (ip), vehicle: Klucel (hydroxypropylcellulose) (HPC)
[5] = dose: 100.0 mg/kg/injection, schedule: Q01DX009 (ip), vehicle: saline with Tween-80
[6] = dose: 12.5 mg/kg/injection, schedule: Q01DX009 (ip), vehicle: water
[7] = dose: 25.0 mg/kg/injection, schedule: Q01DX009 (ip), vehicle: water
[8] = dose: 50.0 mg/kg/injection, schedule: Q01DX009 (ip), vehicle: water
[9] = dose: 50.0 mg/kg/injection, schedule: Q01DX009 (ip), vehicle: saline
[10] = dose: 50.0 mg/kg/injection, schedule: Q01DX005 (ip), vehicle: saline with Tween-80
[11] = dose: 100.0 mg/kg/injection, schedule: Q01DX005 (ip), vehicle: saline with Tween-80
[12] = dose: 200.0 mg/kg/injection, schedule: Q01DX005 (ip), vehicle: saline with Tween-80

Measured: T/C

Nc1nc(=O)nc2[nH]c3c4cccc5cccc(c3nc12)c54
inactive: dose: 60.0 mg/kg/injection, schedule: Q01DX005 (ip), vehicle: saline with Tween-80 96 % of control | [1] 100 % of control | dose: 120.0 mg/kg/injection, schedule: Q01DX005 (ip), vehicle: saline with Tween-80 93 % of control | [2] 100 % of control | dose: 240.0 mg/kg/injection, schedule: Q01DX005 (ip), vehicle: saline with Tween-80 100 % of control | [3] 101 % of control

CCCC/C=C/C=C/C=C/CCCCCCCC(=O)OC(COC(=O)CCCCCCC/C=C/C1C=CC(CCCC)C(C(=O)O)C1C(=O)O)COC(=O)CCCCCCC/C=C/C1C=CC(CCCC)C(C(=O)O)C1C(=O)O (configuration not stated)
inactive: [4] 101 % of control | dose: 100.0 mg/kg/injection, schedule: Q01DX009 (ip), vehicle: Klucel (hydroxypropylcellulose) (HPC) 111 % of control | dose: 200.0 mg/kg/injection, schedule: Q01DX009 (ip), vehicle: Klucel (hydroxypropylcellulose) (HPC) 108 % of control

C1#CCCCCCC#CCCCC1
inactive: dose: 20.0 mg/kg/injection, schedule: Q01DX009 (ip), vehicle: saline with Tween-80 109 % of control | dose: 30.0 mg/kg/injection, schedule: Q01DX009 (ip), vehicle: saline with Tween-80 104 % of control | dose: 44.0 mg/kg/injection, schedule: Q01DX009 (ip), vehicle: saline with Tween-80 100 % of control | dose: 66.0 mg/kg/injection, schedule: Q01DX009 (ip), vehicle: saline with Tween-80 104 % of control | [5] 104 % of control | dose: 150.0 mg/kg/injection, schedule: Q01DX009 (ip), vehicle: saline with Tween-80 109 % of control

C/C=C(\C)C(=O)O[C@@H]1c2cc3c(cc2-c2c(cc(OC)c(OC)c2OC)[C@@H]2C(=O)OC[C@@H]12)OCO3
inactive: dose: 1.25 mg/kg/injection, schedule: Q01DX009 (ip), vehicle: Klucel (hydroxypropylcellulose) (HPC) 92 % of control | dose: 2.5 mg/kg/injection, schedule: Q01DX009 (ip), vehicle: Klucel (hydroxypropylcellulose) (HPC) 111 % of control | dose: 5.0 mg/kg/injection, schedule: Q01DX009 (ip), vehicle: Klucel (hydroxypropylcellulose) (HPC) 113 % of control | dose: 10.0 mg/kg/injection, schedule: Q01DX009 (ip), vehicle: Klucel (hydroxypropylcellulose) (HPC) 103 % of control

O=C(O)C(Cc1ccc(O)cc1)NC(=O)C(F)(F)F (configuration not stated)
inactive: dose: 50.0 mg/kg/injection, schedule: Q01DX009 (ip), vehicle: saline with Tween-80 98 % of control and 100 % of control | [5] 93 % of control | dose: 200.0 mg/kg/injection, schedule: Q01DX009 (ip), vehicle: saline with Tween-80 90 % of control

CN(C)CCCNc1ccc(O)c2c1C(=O)c1ccccc1C2=O
inactive: [6] 93 % of control | [7] 97 % of control | [8] 96 % of control | dose: 100.0 mg/kg/injection, schedule: Q01DX009 (ip), vehicle: water 104 % of control

O=NNc1cccnc1Cl
inactive: dose: 1.56 mg/kg/injection, schedule: Q01DX009 (ip), vehicle: water 110 % of control | dose: 3.12 mg/kg/injection, schedule: Q01DX009 (ip), vehicle: water 102 % of control and 108 % of control | dose: 6.25 mg/kg/injection, schedule: Q01DX009 (ip), vehicle: water 99 % of control and 98 % of control | [6] 107 % of control and 110 % of control | [7] 107 % of control and 117 % of control | [8] 105 % of control

CS(=O)(=O)OC[C@@H](O)[C@@H](O)COS(C)(=O)=O
inactive: [9] 112 % of control | dose: 100.0 mg/kg/injection, schedule: Q01DX009 (ip), vehicle: saline sonified 110 % of control | dose: 100.0 mg/kg/injection, schedule: Q01DX009 (ip), vehicle: saline 99 % of control | dose: 200.0 mg/kg/injection, schedule: Q01DX009 (ip), vehicle: saline sonified 100 % of control | dose: 200.0 mg/kg/injection, schedule: Q01DX009 (ip), vehicle: saline 99 % of control | dose: 400.0 mg/kg/injection, schedule: Q01DX009 (ip), vehicle: saline sonified 100 % of control

CN(C)Cc1cc(C(=O)c2ccccc2)c(O)cc1O
inactive: dose: 25.0 mg/kg/injection, schedule: Q01DX009 (ip), vehicle: Klucel (hydroxypropylcellulose) (HPC) 103 % of control | [4] 103 % of control

NNC(=O)C12CC3CC(CC(C3)C1)C2
inactive: dose: 25.0 mg/kg/injection, schedule: Q01DX005 (ip), vehicle: Klucel (hydroxypropylcellulose) (HPC) 105 % of control | dose: 50.0 mg/kg/injection, schedule: Q01DX005 (ip), vehicle: Klucel (hydroxypropylcellulose) (HPC) 105 % of control | dose: 100.0 mg/kg/injection, schedule: Q01DX005 (ip), vehicle: Klucel (hydroxypropylcellulose) (HPC) 102 % of control | dose: 200.0 mg/kg/injection, schedule: Q01DX005 (ip), vehicle: Klucel (hydroxypropylcellulose) (HPC) 112 % of control

Cn1c[n+](C)nn1
inactive: dose: 12.5 mg/kg/injection, schedule: Q01DX009 (ip), vehicle: saline 91 % of control | dose: 25.0 mg/kg/injection, schedule: Q01DX009 (ip), vehicle: saline 97 % of control | [9] 97 % of control

COc1ccc(C(=O)Cc2ccccc2C#N)cc1
inactive: [1] 100 % of control | [2] 99 % of control | [3] 99 % of control

CCP(=O)(CC)CC
inactive: dose: 25.0 mg/kg/injection, schedule: Q01DX005 (ip), vehicle: saline 98 % of control | dose: 50.0 mg/kg/injection, schedule: Q01DX005 (ip), vehicle: saline 105 % of control | dose: 100.0 mg/kg/injection, schedule: Q01DX005 (ip), vehicle: saline 99 % of control | dose: 200.0 mg/kg/injection, schedule: Q01DX005 (ip), vehicle: saline 99 % of control | dose: 400.0 mg/kg/injection, schedule: Q01DX005 (ip), vehicle: saline 99 % of control

CS(=O)(=O)NCCSSCCNS(C)(=O)=O
inactive: [10] 106 % of control | [11] 103 % of control | [12] 112 % of control

CC(=O)NCCSSCc1ccccc1CS(=O)O
inactive: dose: 25.0 mg/kg/injection, schedule: Q01DX005 (ip), vehicle: suspension in saline 104 % of control | dose: 50.0 mg/kg/injection, schedule: Q01DX005 (ip), vehicle: suspension in saline 106 % of control | dose: 100.0 mg/kg/injection, schedule: Q01DX005 (ip), vehicle: suspension in saline 113 % of control

COCCN(CCOC)C(C(=O)Cc1ccccc1)c1ccccc1 (configuration not stated)
inactive: [10] 99 % of control | [11] 101 % of control | [12] 103 % of control

CC1(C)[C@@H]2CC[C@]3(C)[C@H]4CC[C@]5(C)[C@@H](O)CC[C@H]5[C@@H]4CC[C@]3(O2)[C@@H]1O
inactive: [10] 91 % of control | [11] 91 % of control

C=C1C(=O)OC2CC3(C)OC3CC/C(C)=C/C(OC(C)=O)C12 (configuration not stated)
inactive: dose: 12.5 mg/kg/injection, schedule: Q01DX005 (ip), vehicle: saline with Tween-80 111 % of control | dose: 25.0 mg/kg/injection, schedule: Q01DX005 (ip), vehicle: saline with Tween-80 111 % of control | [10] 111 % of control and 112 % of control

O=C(O)c1cccc(C(=O)O)c1S(=O)c1ccccc1 (configuration not stated)
inactive: dose: 100.0 mg/kg/injection, schedule: Q04DX002 (ip), vehicle: other 102 % of control | dose: 200.0 mg/kg/injection, schedule: Q04DX002 (ip), vehicle: other 103 % of control | dose: 400.0 mg/kg/injection, schedule: Q04DX002 (ip), vehicle: other 94 % of control

Cc1ccc(S(=O)(=O)N/N=C/c2c(C)nc3n2CCS3)cc1
inactive: dose: 100.0 mg/kg/injection, schedule: Q01DX001 (ip), vehicle: Klucel (hydroxypropylcellulose) (HPC) 101 % of control | dose: 200.0 mg/kg/injection, schedule: Q01DX001 (ip), vehicle: Klucel (hydroxypropylcellulose) (HPC) 102 % of control | dose: 400.0 mg/kg/injection, schedule: Q01DX001 (ip), vehicle: Klucel (hydroxypropylcellulose) (HPC) 102 % of control

O=C1CN(Cc2cccc(Cl)c2)CC(=O)N2Cc3ccccc3CN12
inactive: [10] 106 % of control | [11] 98 % of control

CN=C(N)N/N=C(\c1ccccc1)c1cc(Cl)c(O)c(Cl)c1
inactive: dose: 25.0 mg/kg/injection, schedule: Q04DX002 (ip), vehicle: saline with Tween-80 101 % of control | dose: 50.0 mg/kg/injection, schedule: Q04DX002 (ip), vehicle: saline with Tween-80 100 % of control | dose: 100.0 mg/kg/injection, schedule: Q04DX002 (ip), vehicle: saline with Tween-80 100 % of control | dose: 200.0 mg/kg/injection, schedule: Q04DX002 (ip), vehicle: saline with Tween-80 104 % of control | dose: 400.0 mg/kg/injection, schedule: Q04DX002 (ip), vehicle: saline with Tween-80 103 % of control
